According to publication PMC4512654 (Analytical biochemistry, 2014):

Key:
[1] = molecular target: T1, Activated Factor XIII (FXIIIa) (Homo sapiens, UniProt P00488); assay type: biochemical
T1 sequence (P00488 39-732 limits assumed): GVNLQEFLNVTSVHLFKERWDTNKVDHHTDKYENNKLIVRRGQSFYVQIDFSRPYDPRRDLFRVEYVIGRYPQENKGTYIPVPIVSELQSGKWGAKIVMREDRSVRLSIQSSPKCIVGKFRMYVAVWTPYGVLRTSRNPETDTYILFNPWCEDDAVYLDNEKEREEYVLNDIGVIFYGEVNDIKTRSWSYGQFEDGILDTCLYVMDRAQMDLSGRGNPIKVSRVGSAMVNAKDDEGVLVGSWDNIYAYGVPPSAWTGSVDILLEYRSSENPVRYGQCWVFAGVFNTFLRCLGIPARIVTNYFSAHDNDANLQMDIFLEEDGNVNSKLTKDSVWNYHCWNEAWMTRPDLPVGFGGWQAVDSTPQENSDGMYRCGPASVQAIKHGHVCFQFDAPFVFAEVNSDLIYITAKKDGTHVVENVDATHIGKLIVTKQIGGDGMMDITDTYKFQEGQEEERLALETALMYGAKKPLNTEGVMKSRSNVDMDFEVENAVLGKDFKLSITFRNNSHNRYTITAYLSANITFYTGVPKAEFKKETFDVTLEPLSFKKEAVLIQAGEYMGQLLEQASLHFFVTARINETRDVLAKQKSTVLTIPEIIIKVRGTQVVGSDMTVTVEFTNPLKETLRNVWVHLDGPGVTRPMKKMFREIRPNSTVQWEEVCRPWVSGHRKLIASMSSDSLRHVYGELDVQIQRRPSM

FXIIIa = conditions: coupled uv/vis assay, derived earlier; cited from earlier work

Sequence	Km (FXIIIa) [µM]	further results
FQSGQVLAALPRTSR [TAFI (1–15)]		Km weaker than α2AP (1–15) K12R and S. Aureus Fnb A (100–114) [1]: more than 5 fold
NQEKVSPLTLLKLGN [α2AP (1–15) Q4K]	426 ± 93	
NQEQVSPLTLLKLGN [α2AP (1–15)]	459 ± 50	
SGDQRQVDLIPKKAT [S. Aureus Fnb A (100–114)]		Km better than S. Aureus Fnb A (100–110) ([1]; P < 0.05): almost two-fold better
